From US20260284208A1, “SYSTEM” (Oxford University Innovation Limited, priority 2023, published 2026) come the findings set out here.

Molecules are shown by their SMILES.

Assay [1] has as its target IKZF3 130-189aa Q147W N149E Q150I (WEIS) ZF-GFP (Homo sapiens, UniProt Q96SW2+Q9UKT9, N149E/Q147W/Q150I). The assay can be described thus: GFP degradation flow cytometry assay, WEIS mutant ZF-eGFP. The class given is cell-based. How it is done:
(§1) The following method was used to generate lentiviral vectors for plasmids tested in library hit confirmation experiments: WT, QPIS, ANQS, APIS, HEIP, FEVP, WEIK, FDIP, AEVK, WNQS, WEIS, WNIQ, and WDIA. HEK293T cells were seeded into 6 well TC-treated cell culture dishes (Falcon) at 7×10^5 cells per well and incubated overnight at 37° C. and 5% CO2. […] In a separate tube 2 μL of PEIPro (Polyplus) was added to 100 μL of OptiMEM. The solution containing PEIPro and DNA was mixed and incubated at room temperature for 15 minutes to create the transfection mixture. The transfection mixture was added to cells and incubated for 5-6 hours at 37° C. and 5% CO2. After 2 days, the supernatant was harvested and fresh media was added to cells. 24 hours later, the supernatant was harvested and combined with the first supernatant harvested. Supernatant was centrifuged at 2000×g room temperature for 5 minutes, then the supernatant was filtered through a 0.45 μm cellulose acetate syringe filter and frozen at −80° C. […]
(§2) Jurkat cells were added to 96 well U-bottom assay plates (Falcon) at 1×10^5 cells per well and treated with compounds for 18 hours at 37° C. and 5% CO2. […] Data was analysed using FlowJo 10.8.1 (BD).
(§3) Having assessed the broad trends from this library screen, the sequences with the highest log FC values for A63 and B08 were selected and transduced into separate Jurkat cell lines. […]
In general terms: A flow cytometer gives signals particle by particle.

In assay [2] the target is IKZF3 130-189aa Q147A N149E Q150V S154K (AEVK) ZF-GFP (Homo sapiens, UniProt Q96SW2+Q9UKT9, N149E/Q147A/Q150V/S154K). The assay can be described thus: GFP degradation flow cytometry assay, AEVK mutant ZF-eGFP. The format is cell-based. Here is the method:
as §1, §2, §3

Where [3] appears, read: from pDC50 values, 12 concentrations 5 nM-10 μM.

IKZF3 130-189aa Q147A N149E Q150V S154K (AEVK) ZF-GFP, sequence (Q9UKT9 130-189 Q147A/N149E/Q150V/S154K): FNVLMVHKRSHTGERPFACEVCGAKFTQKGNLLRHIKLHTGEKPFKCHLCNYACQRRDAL
IKZF3 130-189aa Q147A N149E Q150V S154K (AEVK) ZF-GFP, sequence (Q96SW2 whole entry): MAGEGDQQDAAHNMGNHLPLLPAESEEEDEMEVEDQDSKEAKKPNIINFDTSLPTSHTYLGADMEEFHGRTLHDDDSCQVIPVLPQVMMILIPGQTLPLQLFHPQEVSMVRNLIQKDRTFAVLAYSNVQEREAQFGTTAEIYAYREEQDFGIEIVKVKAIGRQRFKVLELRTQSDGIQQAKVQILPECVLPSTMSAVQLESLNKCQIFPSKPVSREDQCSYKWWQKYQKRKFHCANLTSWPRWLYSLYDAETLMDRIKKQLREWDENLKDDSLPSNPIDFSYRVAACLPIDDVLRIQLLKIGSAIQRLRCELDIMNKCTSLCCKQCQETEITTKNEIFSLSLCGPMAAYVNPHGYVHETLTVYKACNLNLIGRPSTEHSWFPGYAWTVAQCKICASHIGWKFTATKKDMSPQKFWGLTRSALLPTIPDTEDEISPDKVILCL
IKZF3 130-189aa Q147W N149E Q150I (WEIS) ZF-GFP, sequence (Q9UKT9 130-189 Q147W/N149E/Q150I): as the sequence (Q9UKT9 130-189 Q147A/N149E/Q150V/S154K) above, with A18W, V21I, K25S counted along it
IKZF3 130-189aa Q147W N149E Q150I (WEIS) ZF-GFP, sequence (Q96SW2 whole entry): as the sequence (Q96SW2 whole entry) above

In the case of `CN1CCN(c2ccc3c(c2)C(=O)N(C2CCC(=O)NC2=O)C3=O)CC1` (stereo not shown) [B08, 2-(2,6-dioxopiperidin-3-yl)-5-(4-methylpiperazin-1-yl)isoindoline-1,3-dione], the inhibition at up to 10 µM in assay [1] (18 h, 10 μM, Jurkat, flow cytometry concentration curve, read-out: degradation of the top mutant ZF-GFP (WEIS)) was roughly 100%. The “selectivity compared to the WT ZF (WEIS)” value in assay [1] (setting [3]) is given as “around 30 ×”.

As to `CC(C)(C)c1ccc2c(c1)C(=O)N(C1CCC(=O)NC1=O)C2=O` (stereo not shown) [A63, 5-(tert-butyl)-2-(2,6-dioxopiperidin-3-yl)isoindoline-1,3-dione], the percent degradation of ZF-GFP reporter at up to 10 µM in assay [2] (18 h, 10 μM, Jurkat, flow cytometry concentration curve, read-out: degradation of the top mutant ZF-GFP (AEVK)) was roughly 100%. In assay [2] (setting [3]), the “selectivity compared to the WT ZF (AEVK)” value is “around 30 ×”.
